Source: patent US20070225256A1, “COMPOUND” (priority 2004, published 2007)
Like-named read-outs stand apart in the source and are kept apart here.

Columns and labels:
MCF-7 = test: Inhibition of MCF-7 cell proliferation; assay type: cell-based; conditions: for IC50: read-out: Concentration for 50% inhibition of MCF-7 proliferation
Experimental: MCF-7 breast cancer cells are seeded into multi-well culture plates at a density of 10^5 cells/well. Cells were allowed to attach and grown until about 30% confluent when they are treated as follows:
Cells are grown for 6 days in growth medium containing the COI with changes of medium/COI every 3 days. At the end of this period cell numbers were counted using a Coulter cell counter.
Inhibition of MCF-7 Cell Proliferation

[1] = cited from earlier work
E1-STS [2] = molecular target: T1, E1-STS (Homo sapiens, UniProt P08842); conditions: compared with EMATE; cited from earlier work
T1 sequence (P08842 22-583): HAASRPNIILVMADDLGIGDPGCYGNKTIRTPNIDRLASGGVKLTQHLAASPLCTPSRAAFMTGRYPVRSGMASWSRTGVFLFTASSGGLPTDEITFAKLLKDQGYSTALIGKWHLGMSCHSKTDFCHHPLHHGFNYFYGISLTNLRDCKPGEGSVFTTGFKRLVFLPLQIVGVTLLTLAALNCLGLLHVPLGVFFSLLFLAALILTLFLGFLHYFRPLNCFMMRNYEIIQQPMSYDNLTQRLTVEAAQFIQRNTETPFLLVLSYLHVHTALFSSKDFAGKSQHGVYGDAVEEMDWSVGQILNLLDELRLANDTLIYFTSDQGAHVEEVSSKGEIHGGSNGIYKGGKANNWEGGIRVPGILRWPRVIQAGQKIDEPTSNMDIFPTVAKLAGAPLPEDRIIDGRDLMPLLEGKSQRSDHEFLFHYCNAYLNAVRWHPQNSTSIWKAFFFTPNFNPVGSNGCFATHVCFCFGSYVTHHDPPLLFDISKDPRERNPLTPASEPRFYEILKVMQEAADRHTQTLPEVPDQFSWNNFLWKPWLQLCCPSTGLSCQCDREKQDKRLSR

[3] = cited from earlier work; remark: listed apart in the source
E1-STS [4] = molecular target: T1, E1-STS; design: endogenous in cells; host or cells: MCF-7; conditions: 0.1 nM; cited from earlier work
steroid sulphatase = molecular target: T2, steroid sulphatase (Homo sapiens, UniProt P08842); conditions: compared with EMATE; cited from earlier work
T2 sequence (P08842 22-583): T1 sequence (P08842 22-583)

**Q.** For `COc1cc2c(cc1O)CCC1C2CC[C@@]2(C)C1CC[C@@H]2OC(N)=O` (some centres unmarked) [Compound 57, 2-Methoxy-estradiol-17-carbamate], which IC50 (MCF-7; Homo sapiens, MCF7) is on record?
**A.** 44 µM

**Q.** Which half-life in blood [1] does the source give for `C[C@]12CC[C@@H]3c4ccc(OS(=O)(=O)O)cc4CC[C@H]3[C@@H]1CCC2=O` [Compound E1S, oestrone sulphate] here?
**A.** 10 to 12 h

**Q.** With `CCc1cc2c(cc1OS(N)(=O)=O)CC[C@@H]1[C@@H]2CC[C@]2(C)C(CS(C)(=O)=O)CC[C@@H]12` (some centres unmarked) [Compound 8, 2-Ethyl-3-O-sulfamoyl-17-methanesulfonylmethyl estrone] as the compound, how does the “% Inhibition of MCF-7 proliferation at 10 μM” value (shortened to “% Inhibition”) (MCF-7) read?
**A.** 79%

**Q.** For oestrone-3-S-sulphamate, which E1-STS inactivation (E1-STS [2]) is on record?
**A.** weaker non-time-dependent inactivators

**Q.** Which “% Inhibition” value (MCF-7) does the source give for `CCc1cc2c(cc1OS(N)(=O)=O)CC[C@@H]1[C@@H]2CC[C@]2(C)[C@@H](C[N+](=O)[O-])CC[C@@H]12` [Compound 23, 2-Ethyl-3-O-sulfamoyl-17β-nitromethyl-17-deoxy estrone] here?
**A.** <50%

**Q.** Which E1-STS inactivation (E1-STS [2]) does the source give for oestrone-3-N-sulphamate here?
**A.** weaker non-time-dependent inactivators

**Q.** Which “oral uterotrophic activity relative to estradiol” value ([3]; rats, oral) does the source give for `CC12CCC3c4ccc(OS(N)(=O)=O)cc4CCC3C1CCC2=O` (centres unmarked) [EMATE, oestrone-3-sulphamate] here?
**A.** 100 times

**Q.** What about the “inhibition of E1-STS activity in intact MCF-7 cells” value (E1-STS [4]) of the same compound?
**A.** more than 99%

**Q.** For `COc1cc2c(cc1OS(N)(=O)=O)CC[C@@H]1[C@@H]2CC[C@]2(C)[C@@H](OC(N)=O)CC[C@@H]12` [Compound 58, 2-Methoxy-3-O-sulfamoyl estradiol-17-carbamate], which IC50 (MCF-7) is on record?
**A.** 1.8 µM

**Q.** For `CCc1cc2c(cc1OS(N)(=O)=O)CC[C@@H]1[C@@H]2CC[C@]2(C)[C@@H](CC(C)=O)CC[C@@H]12` [Compound 29, 2-Ethyl-3-O-sulfamoyl-17β-(2-oxopropyl) estrone], which “% Inhibition” value (MCF-7) is on record?
**A.** 69%

**Q.** With `CCc1cc2c(cc1OS(N)(=O)=O)CC[C@@H]1[C@@H]2CC[C@]2(C)[C@@H](CC)CC[C@@H]12` [Compound 11, 2-Ethyl-3-O-sulfamoyl-17-β-ethyl-17-deoxy estrone] as the compound, how does the “% Inhibition” value (MCF-7) read?
**A.** 83%

**Q.** Which results are given for `COc1cc2c(cc1OS(N)(=O)=O)CC[C@@H]1[C@@H]2CC[C@]2(C)C(=O)CC[C@@H]12` [2-methoxyoestrone-3-O-sulphamate]?
**A.** oestrogenicity ([3]; rat, in vivo): devoid of oestrogenicity; potency as a steroid sulphatase inhibitor (steroid sulphatase): equipotent with EMATE

**Q.** For `CCc1cc2c(cc1OS(N)(=O)=O)CC[C@@H]1[C@@H]2CC[C@]2(C)[C@@H](CCF)CC[C@@H]12` [Compound 14, 2-Ethyl-3-O-sulfamoyl-17β-(2-fluoro-ethyl)-17-deoxy estrone], which “% Inhibition” value (MCF-7) is on record?
**A.** 89%
